# ChEMBL document CHEMBL2440048 (J Med Chem, 2013)
# Assay: Inhibition of RyR2 R4496C mutant (unknown origin)-mediated store-overload induced calcium release expressed in HEK293 cells after 8 to 10 mins by fura-2/AM dye-based fluorescence assay
# Assay type: cell-based
# Conditions: Homo sapiens
row,IC50,Structure (SMILES)
1,> 1000 µM,COc1ccccc1OCCNCC(O)COc1ccc2[nH]cnc2c1 (configuration not stated)
2,> 1000 µM,COc1ccc2c(c1)N(C)CCCS2
